{"source": "patent US20110178182A1", "about": "“ENRICHED NANOSTRUCTURE COMPOSITION” (DO-COOP TECHNOLOGIES LTD., priority 2007, published 2011)", "key": {"[1]": {"assay": "Solubilizing Daunorubicine", "format": "physicochemical", "conditions": "2 mg/ml in GENC or RO water", "procedure": "Required concentration: 2 mg/ml"}, "[2]": {"assay": "Solvent capability: Taxol (Example 28)", "format": "physicochemical", "conditions": "0.5 mM in DMSO or in the composition with 17% EtOH", "procedure": "0.5 mM Taxol solution can be prepared (0.0017 gr in 4 ml) in either DMSO or the enriched nanostructure composition of the present embodiments with 17% EtOH. Absorbance can be detected with a spectrophotometer."}}}
{"smiles": "COc1cccc2c1C(=O)c1c(O)c3c(c(O)c1C2=O)C[C@@](O)(C(C)=O)C[C@@H]3O[C@H]1C[C@H](N)[C@H](O)[C@H](C)O1", "note": "[Daunorubicine]", "values": [{"measurement": "dissolution", "setting": "[1]", "result": "dissolved easily both in the enriched nanostructure composition of the present embodiments and in RO water"}]}
{"smiles": "CC(=O)O[C@H]1C(=O)[C@@]2(C)[C@H]([C@H](OC(=O)c3ccccc3)[C@]3(O)C[C@H](OC(=O)[C@H](O)[C@@H](NC(=O)c4ccccc4)c4ccccc4)C(C)=C1C3(C)C)[C@]1(OC(C)=O)CO[C@@H]1C[C@@H]2O", "note": "[Taxol, Paclitaxel]", "values": [{"measurement": "dissolution", "setting": "[2]", "result": "dissolved both in DMSO and the enriched nanostructure composition"}]}
